What was measured:
AChE mRNA (APP-H4 cells) = assay: AChE mRNA expression in APP-H4 cell line (qRT-PCR, FIGS. 5 and 6); type: cell-based, human; conditions: 24 h
Source text: An APP-H4 cell line is known as a dementia model cell line in which an abnormal segment of Amyloid Precursor Protein (APP) is increased by β-secretase and Alzheimer's disease and hyperphosphorylation of a Tau protein are induced by introducing a Swedish mutation of APP into human neuroglioblastoma H4 cells. In order to re-verify the effect of combined administration of the donepezil and the rivastigmine on the AChE mRNA expression and the drug combination ratio confirmed through a previous study, APP-H4 cells were treated with the donepezil and the rivastigmine alone or in combination as active ingredients, and the AChE gene expression was analyzed.
Specifically, the APP-H4 cell line was cultured in DMEM including 10% fetal bovine serum and gentamycine. Gene expression comparative analysis was performed by treating cells with donepezil 50 (19 μg/ml) μM alone or with donepezil 50 μM and rivastigmine 1 or 5 (1.25 μg/ml) μM as a final concentration in combination and performing qRT-PCR as in the previous experiment method (primers are shown in Table 4 below).
APP-H4 cells were treated with the donepezil and the rivastigmine alone or in combination and cultured for 24 hours, and then the AChE mRNA expression level was measured by qRT-PCR method.

[1] = tested on: AChE mRNA (SH-SY5Y cells); assay: AChE mRNA expression in SH-SY5Y cell line (qRT-PCR, FIGS. 2 to 4); type: cell-based, human
Experimental: Specifically, the SH-SY5Y cell line was cultured in a 6-well plate (6×10^5/well) using high-glucose Dulbecco's modified Eagle medium (DMEM) added with 10% fetal bovine serum and penicillin-streptomycin. SH-SY5Y cells were treated with the donepezil at final concentrations of 10, 20, 30, 40 (15.2 μg/ml) μM, or the rivastigmine at 0.01, 0.1, 0.5, 1, 5 (1.25 μg/ml) μM and cultured for 24 hours, and then, a total RNA was extracted from each cell using TRIzol, and cDNA was synthesized using a SuperScriptIII cDNA synthesis kit. Quantitative real-time PCR (qRT-PCR) was performed using the synthesized cDNA and primers and SYBR Green in Table 3 below using QuantStudio 3. In order to confirm amplification and accumulation of a target gene in real time, the qRT-PCR was performed under a condition that a cycle of 95° C. for 15 seconds and 60° C. for 1 minute was reacted 40 times after an initial denaturation reaction was performed at 50° C. for 2 minutes and 95° C. for 10 minutes.
A gene expression level amplified by the Comparative Ct Method which is one of methods for quantifying a specific gene expression level was calculated, and analysis results are shown in FIGS. 2 to 4.
[Relational Expression of AChE mRNA Expression Level Analysis for Each Sample]
ΔCt value=Ct value of AChE in each sample−Ct value of reference gene (GAPDH) in the sample.
(Here, Ct refers to a cycle number in which amplification begins to increase clearly during a PCR process.)
Specifically, the SH-SY5Y cell line was cultured in a 6-well plate (6×10^5/well) using DMEM added with 10% fetal bovine serum and penicillin-streptomycin. Gene expression comparative analysis was performed by treating the SH-SY5Y cells with donepezil alone or with donepezil and rivastigmine in combination and performing qRT-PCR as in the previous experiment method.
Specifically, the gene expression comparative analysis was performed by treating the SH-SY5Y cells with donepezil 20 μM alone and with donepezil 20 μM and rivastigmine 0.1, 0.5, 1, and 5 μM as a final concentration in combination and performing qRT-PCR as in the previous experiment method.

AChE = conditions: patients taking donepezil in a long-term; cited from earlier work

SMILES	AChE mRNA expression (AChE mRNA (APP-H4 cells); rivastigmine alone, 0.5, 1, or 10 μM, FIG. 5)	AChE mRNA expression ([1]; rivastigmine alone, 0.01 to 5 μM, 24 h, FIG. 2)	AChE activity and quantity (AChE)	AChE expression (AChE mRNA (APP-H4 cells); 50 μM donepezil, FIG. 6)	AChE mRNA expression ([1]; 5 μM (1.9 μg/ml) donepezil alone, FIG. 3)	AChE mRNA expression ([1]; donepezil alone, beyond 20 μM (30, 40 μM), 24 h, FIG. 2)	AChE mRNA expression ([1]; donepezil alone, up to 20 μM, 24 h, FIG. 2)
CCN(C)C(=O)Oc1cccc([C@H](C)N(C)C)c1 [rivastigmine]	no effect	no statistically significant change was observed					
COc1cc2c(cc1OC)C(=O)C(CC1CCN(Cc3ccccc3)CC1)C2 (stereo not shown) [donepezil]			increases	increased	increased	no difference	dependently increased

From patent publication US20260335298A1, “PHARMACEUTICAL COMBINATION CONTAINING DONEPEZIL AND RIVASTIGMINE FOR PREVENTING, ALLEVIATING OR TREATING DEMENTIA OR COGNITIVE IMPAIRMENT, AND PREPARATION METHOD THEREFOR” (G2GBIO, INC., priority 2022, published 2026)
